One may read the IC50 as the concentration needed to halve the response being measured. The bioavailability is dose-corrected exposure relative to a reference, in per cent.

The subject of series [1] is psoriasis-like mouse model induced by imiquimod. As to the kind of experiment: Efficacy test in psoriasis-like mouse model induced by imiquimod (PASI score). The format is in vivo, Balb/c mice. As for the experimental part: Experimental animal: Balb/c mice.
• (1) negative control group (applying Vaseline, administering solvent intragastrically), • (2) model control group [applying imiquimod (IMQ)], • (3) administration group (applying IMQ, administering Compound 7, Compound 8, Compound 9, Compound 10, and Compound No. 146 intragastrically); • wherein, “Compound No. 146” refers to the compound in Example 146 of reference WO2014074661, which was prepared according to the method described therein.
(§1) Administration dosage and method: 20 mg/kg, BID, intragastric administration.
Experiment process: On Day 0, the animals were subjected to hair shaving on the test area of the back, and then they were grouped. From Day 1 to Day 7, one hour after the first administration in every morning, 40 mg of 5% imiquimod cream was applied once to the test area on the back, after that, a second administration was conducted on the same day. The skin lesion symptoms of psoriasis and efficacy were evaluated through Psoriasis Area and Severity Index (PASI) score (erythema, scale, thickening degree). The higher the score, the more severe the symptoms are.
PASI score results on day 7 are listed in the table below, wherein, • “+” represents a score of ≥6; • “++” represents a score of greater than 5 and less than 6; • “+++” represents a score of greater than 4 and less than or equal to 5; • “++++” represents a score of less than or equal to 4.
By using the same scheme as test example 1, pharmaceutical efficacy in psoriasis-like mouse model induced by imiquimod was studied.
By using the same scheme as test example 1, pharmaceutical efficacy in psoriasis-like mouse model induced by imiquimod was studied. PASI score results on Day 7 are listed in the table below, wherein, • “+” represents a score of ≥6; • “++” represents a score of greater than 5 and less than 6; • “+++” represents a score of greater than 4 and less than or equal to 5; • “++++” represents a score of less than or equal to 4.

For series [2], the system named is IL-17F. Nature of the series: Rat model with increased IL-17 induced by imiquimod, intragastric administration. Conditions: for skin lesions in rats: after treatment by intragastric administration. The series is classed as in vivo, SD rats. As for the experimental part:
Experimental animal: 8 to 10-week old SD rats, half male and half female.
• (1) negative control group (applying Vaseline, administering solvent intragastrically), • (2) model control group [applying imiquimod (IMQ)], • (3) administration group (applying IMQ, administering the compounds of the present invention intragastrically).
as §1
Model establishment: SD rat was subjected to application of 40 mg of imiquimod ointment on its back skin once a day to construct the rat model. […]
By using the same scheme as biological test example 8, the efficacy of the compounds of the present invention was evaluated, and the following test results were obtained: […]

The test system of series [3] is pSTAT5 expression in CD3+ cells. As to the kind of experiment: Inhibition of pSTAT5 expression in CD3+ cells of IFN-alpha stimulated human PBMC by FACS. Conditions: read-out: Inhibitory activity on p-STAT5 expression (IC50 value). The format is cell-based. The method, then:
Compound dilution and preparation: The test compound was prepared into a 10 mM solution using DMSO, and diluted in DMSO to obtain a solution with a gradient of different concentrations which was 500 times of the final concentration. 5 μL of the diluted compound was transferred into 120 μL of PBS solution containing 0.1% BSA. Positive and negative control groups were set up with 0.2% DMSO ultimately contained in each group.
• 1) Human PBMC cells were added into a 96-well cell culture plate, with 0.5 million cells and a volume of 67.5 μL per well. • 2) 3.5 μL of the diluted compound was added and mixed evenly. • 3) The incubation was carried out in a 37° C. incubator for 60 minutes. • 4) IFN-alpha was diluted to 600 ng/ml in DPBS containing 0.1% BSA. After the above 60-minute incubation, 5 μL of PE-anti-hCD3 antibody was added into each well, then 4 μL of the diluted IFN-alpha was also added into each well. • 5) The incubation was carried out in a 37° C. incubator for 30 minutes. • 6) All cells were transferred into a 96-deep-well plate and added with 1 mL of Lyse/fix buffer preheated at 37° C. • 7) The incubation was carried out in dark at 37° C. for 10 minutes. • 8) The plate was centrifuged at 600 g for 5 minutes with the supernatant abandoned, then washed twice with 1 mL of PBS and centrifuged. • 9) 1 mL of Perm buffer III was added into the cell precipitation. • 10) The incubation was carried out in dark at 4° C. for 30 minutes. • 11) The plate was centrifuged at 600 g for 5 minutes with the supernatant abandoned, then washed twice with 1 mL of PBS and centrifuged. • 12) APC anti-human pSTAT5 antibody was diluted 200 times in Staining buffer, then added into the cell wells with 100 μL per well, and mixed evenly. • 13) The incubation was carried out at room temperature for 40 minutes. • 14) The plate was washed twice with 1 mL of Staining buffer per well, and centrifuged at 600 g for 5 minutes. • 15) After the supernatant was abandoned, the cell precipitation was resuspended in 300 μL of Staining buffer. • 16) The sample was loaded and analyzed in a Beckman CytoFlex flow cytometer.
A general note: Flow cytometry measures light scatter and fluorescence of single cells or particles in a stream.

Series [4] deals with TYK2-JH2 (Homo sapiens, UniProt P29597). As to the kind of experiment: Enzymology experiment in vitro: TYK2-JH2 binding (Tb antibody/Tracer fluorescence ratio). Conditions: for IC50: read-out: TYK2-JH2 binding inhibitory activity (IC50 value).
Series [5] is described as follows: Pharmacokinetic study in vivo. Conditions: rat, plasma; male SD rats; 1 mg/kg IV, 10 mg/kg PO (intragastric), single administration; read-out: Absolute bioavailability(F %). The method, then:
Experimental animal: 8 to 10 week-old male SD rats, fasted 12 hours before administration. Intragastric administration: mixed solution (ethanol+TPGS+PEG300=5:5:90) was used as the administration solvent. Injection administration: mixed solution (PEG400+ddH20=80:20) was used as the administration solvent. Administration capacity: 5 ml/kg. Animal grouping: intravenous IV group and intragastric PO group, with 3 male SD rats in each group. Administration route and dosage: 1 mg/kg for intravenous IV group; 10 mg/kg for intragastric PO group. Administration frequency: single administration. • IV blood collection points: 5 minutes, 15 minutes, 30 minutes, 1 hour, 2 hours, 4 hours, 6 hours, 8 hours, and 24 hours after administration; • PO blood collection points: 15 minutes, 30 minutes, 1 hour, 2 hours, 4 hours, 6 hours, 8 hours, and 24 hours after administration. The whole blood of rat was centrifuged at 10000 rpm for 5 minutes to separate plasma, which was stored at 4° C. 0.1 ml of the plasma was taken, added with 0.2 ml of acetonitrile, vortexed for 1 minute, and centrifuged at 10000 rpm for 5 minutes to take the supernatant, which was sent for analysis of drug content after 0.22 μm filtration.

Setting [6] is: Test Example 6, same scheme as test example 1, day 7.
Where [7] appears, read: Test Example 9, same scheme as test example 8.
[8] abbreviates: human PBMC, CD3+ cells, IFN-alpha stimulation, FACS.
[9] abbreviates: Test Example 1, Balb/c mice, imiquimod, 20 mg/kg BID intragastric, day 7, higher score = more severe.
Where [10] appears, read: Test Example 8, SD rats, imiquimod, 20 mg/kg BID intragastric, day 6.

Like-named read-outs stand apart in the source and are kept apart here.

Chain of TYK2-JH2 (P29597 589-875 limits assumed): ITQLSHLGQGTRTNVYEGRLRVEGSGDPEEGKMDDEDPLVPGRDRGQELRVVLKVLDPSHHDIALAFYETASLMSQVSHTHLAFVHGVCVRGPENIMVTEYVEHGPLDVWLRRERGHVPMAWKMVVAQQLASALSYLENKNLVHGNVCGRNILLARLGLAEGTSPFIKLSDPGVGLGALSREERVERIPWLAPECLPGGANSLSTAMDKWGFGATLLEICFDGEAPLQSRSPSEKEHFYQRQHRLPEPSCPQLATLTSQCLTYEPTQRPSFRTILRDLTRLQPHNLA

As to `[2H]C([2H])([2H])NC(=O)c1nnc(NC(=O)C=C)cc1Nc1cccc(-c2ncn(C)n2)c1OC` [Compound 1-9], the PASI score result in series [1] (setting [6]) is listed as “+ (a score of ≥6)”.

For `[2H]C([2H])([2H])NC(=O)c1nnc(NC(=N)C2CC2)cc1Nc1cccc(-c2ncn(C)n2)c1OC` [Compound 1-1-1], in series [2] (setting [7]), the “Content level of IL-17F in skin” value is recorded as “D (an IL-17F content ranging from 300 pg/mL to 400 pg/mL)”. For the same molecule, the PASI score result in series [1] (setting [6]) is recorded as “+ (a score of ≥6)”.

Consider `[2H]C([2H])([2H])NC(=O)c1nnc(NC(=O)C2CC2)cc1Nc1cccc(-n2ccnn2)c1OC` [Compound 1-6], for which, in series [1] (setting [6]), the PASI score entry is “++ (a score of greater than 5 and less than 6)”.

As to `[2H]C([2H])([2H])NC(=O)c1nnc(NC(=O)C2CC2)cc1Nc1cccc(-c2ccn(CC#C)n2)c1OC` [Compound 2-1B-7], the PASI score entry in series [1] (setting [6]) was “++ (a score of greater than 5 and less than 6)”. For the same molecule, the IC50 lay in the range of 5 to 10 nM in series [3] (setting [8]) and 0.1 to 0.5 nM in series [4].

`[2H]C([2H])([2H])NC(=O)c1nnc(NC(=O)C2CC2)cc1Nc1nccc(-c2ncn(C([2H])([2H])C#C)n2)c1OC` [Compound 8]: the PASI score result in series [1] (setting [9]) and in series [1] (setting [6]) was “++++ (a score of less than or equal to 4)” in each case. In addition, the IC50 in series [3] (Homo sapiens, PBMC) is < 1 nM; in series [4] it was < 0.1 nM.

For the molecule `[2H]C#CC([2H])([2H])n1cnc(-c2ccnc(Nc3cc(NC(=O)C4CC4)nnc3C(=O)NC([2H])([2H])[2H])c2OC)n1` [Compound 9], the PASI score result in series [1] (setting [9]) and in series [1] (setting [6]) was “++++ (a score of less than or equal to 4)” throughout. Moreover, the IC50 was < 1 nM in series [3] (Homo sapiens, PBMC) and < 0.1 nM in series [4].

For `[2H]C([2H])([2H])NC(=O)c1nnc(NC(=O)C2CC2)cc1Nc1cccc(-c2ncn(CCNC(C)=S)n2)c1OC` [Compound 1-4], in series [1] (setting [6]), the PASI score result is “++ (a score of greater than 5 and less than 6)”.

For the molecule `[2H]C([2H])([2H])NC(=O)c1nnc(NC(=O)C2CC2)cc1Nc1cccc(-n2cccn2)c1OC` [Compound 1-5], in series [1] (setting [6]), the PASI score entry was “++ (a score of greater than 5 and less than 6)”.

Take `[2H]C([2H])([2H])NC(=O)c1nnc(NC(=O)C2CC2)cc1Nc1cccc(-c2ncn(C3(C(=O)OC)CC3)n2)c1OC` [Compound 1-7]: in series [1] (setting [6]), the PASI score entry was “++ (a score of greater than 5 and less than 6)”.

With `[2H]C([2H])([2H])NC(=O)c1nnc(NC(=O)C2CC2)cc1Nc1cccc(-c2nnn(CC#C)n2)c1OC` [Compound 2-1B-1], in series [1] (setting [6]), the PASI score entry is “++ (a score of greater than 5 and less than 6)”. For the same molecule, the IC50 is 5 to 10 nM in series [3] (setting [8]) and 0.1 to 0.5 nM in series [4].

Take `[2H]C([2H])([2H])NC(=O)c1nnc(NC(=O)C2CC2([2H])[2H])cc1Nc1nccc(-c2ncn(CC#C)n2)c1OC` (centres unmarked) [Compound 10]: in series [1] (setting [9]), the PASI score entry is given as “++++ (a score of less than or equal to 4)”. For the same molecule, the IC50 in series [3] (Homo sapiens, PBMC) was < 1 nM. Besides, the “effect on the activity of TYK2-JH2 (in words)” value in series [4] is “have inhibitory effects on the activity of TYK2-JH2”.

Regarding `[2H]C([2H])([2H])NC(=O)c1nnc(NC(=O)C2CC2)cc1Nc1cccc(-c2ncn(COCC[Si](C)(C)C)n2)c1OC` [Compound 1-3], the PASI score result in series [1] (setting [6]) was “++ (a score of greater than 5 and less than 6)”.

For the molecule `[2H]C([2H])([2H])NC(=O)c1nnc(NS(=O)(=O)C2CC2)cc1Nc1cccc(-c2ncn(C)n2)c1OC` [Compound 1-8], the PASI score result in series [1] (setting [6]) is “+ (a score of ≥6)”.

As for `[2H]C([2H])([2H])NC(=O)c1nnc(NC(=S)C2CC2)cc1Nc1nccc(-c2ncn(C)n2)c1OC` [Compound 2-1A-1], the “Content level of IL-17F in skin” value in series [2] (setting [7]) is recorded as “A (an IL-17F content less than 30 pg/mL)”. Moreover, the “skin lesions in rats” value in series [2] was “significantly reduced”. The PASI score entry in series [1] (setting [6]) is “++++ (a score of less than or equal to 4)”. The IC50 in series [3] (setting [8]) was < 1 nM; in series [4], < 0.1 nM.

As to `[2H]C([2H])([2H])NC(=O)c1nnc(NC(=O)C2CC2)cc1Nc1nccc(-c2ncn(CC#C)n2)c1OC` [Compound 7], the “Content level of IL-17F in skin” value in series [2] (setting [10]) is reported as “A (an IL-17F content less than 30 pg/mL)”. Also, in series [2], the “skin lesions in rats” value was “significantly reduced”. The PASI score entry in series [1] (setting [9]) and in series [1] (setting [6]) was “++++ (a score of less than or equal to 4)” throughout. The IC50 is < 1 nM in series [3] (Homo sapiens, PBMC) and < 0.1 nM in series [4].

Turning to `[2H]C([2H])([2H])NC(=O)c1nnc(NC(=O)C2([2H])CC2)cc1Nc1nccc(-c2ncn(CC#C)n2)c1OC` [Compound 11], the “Content level of IL-17F in skin” value in series [2] (setting [10]) is “A (an IL-17F content less than 30 pg/mL)”. The “skin lesions in rats” value in series [2] is reported as “significantly reduced”. Also, the PASI score entry in series [1] (Test Example 2, same scheme as test example 1, day 7) was “++++ (a score of less than or equal to 4)”; in series [1] (setting [6]) it was “++++ (a score of less than or equal to 4)”. In addition, the bioavailability in series [5] worked out at 97.8%. For the same molecule, the IC50 was < 1 nM in series [3] (Homo sapiens, PBMC) and < 0.1 nM in series [4].

On to `[2H]C([2H])([2H])NC(=O)c1nnc(NC(=O)C2CC2)nc1Nc1cccc(-c2ncn(CC#C)n2)c1OC` [Compound 2-1B-2], for which, in series [1] (setting [6]), the PASI score entry was “++ (a score of greater than 5 and less than 6)”. For the same molecule, the IC50 was in the range of 5 to 10 nM in series [3] (setting [8]) and 0.5 to 1 nM in series [4].

The record behind these values is patent US20240382477A1, “NITROGEN-CONTAINING HETEROCYCLIC PYRIDINE COMPOUND” (SHANGHAI ZHEYE BIOTECHNOLOGY CO. LTD., priority 2021, published 2024).
